Values after ≈ are worked out from the molar mass of the structure shown. Read-outs that look alike come from different tables or passages of the source.
What was measured:
[1] = system: Staphylococcus aureus 209P; experiment: Antibacterial spectrum, standard serial dilution method of Japan Society of Chemotherapy; format: cell-based; settings: read-out: Minimum Growth Inhibitory Concentration
[2] = system: Bacillus subtilis NRRL B-558; experiment: Antibacterial spectrum, standard serial dilution method; format: cell-based; settings: read-out: Minimum Growth Inhibitory Concentration
[3] = system: Corynebacterium bovis 1810; experiment: as above; format: cell-based; settings: read-out: Minimum Growth Inhibitory Concentration
[4] = system: Mycobacterium smegmatis ATCC 607; experiment: as above; format: cell-based; settings: Mycolicibacterium smegmatis, read-out: Minimum Growth Inhibitory Concentration
[5] = system: Escherichia coli NIHJ; experiment: as above; format: cell-based; settings: read-out: Minimum Growth Inhibitory Concentration
[6] = system: Escherichia coli K-12; experiment: as above; format: cell-based; settings: read-out: Minimum Growth Inhibitory Concentration
[7] = system: Escherichia coli K-12 J5 R11-2; experiment: as above; format: cell-based; settings: K12J5R112, 18 h, read-out: Minimum Growth Inhibitory Concentration
[8] = system: Escherichia coli K-12 ML1629; experiment: as above; format: cell-based; settings: K12ML1629, E. coli K-12 ML1629, Muller-Hinton medium, 37° C., 18 hours, read-out: Minimum Growth Inhibitory Concentration
[9] = system: Escherichia coli K-12 ML1630; experiment: as above; format: cell-based; settings: K12ML1630, E. coli K-12 ML1630, Muller-Hinton medium, 37° C., 18 hours, read-out: Minimum Growth Inhibitory Concentration
[10] = system: Escherichia coli K-12 LA290 R64; experiment: as above; format: cell-based; settings: K12LA290R64, 18 h, read-out: Minimum Growth Inhibitory Concentration
[11] = system: Escherichia coli JR66/W677; experiment: as above; format: cell-based; settings: read-out: Minimum Growth Inhibitory Concentration
[12] = system: Escherichia coli K-12 C600 R135; experiment: as above; format: cell-based; settings: K12C600R135, E. coli K-12 C600 R135, Muller-Hinton medium, 37° C., 18 hours, read-out: Minimum Growth Inhibitory Concentration
[13] = system: Klebsiella Pneumoniae PCI 602; experiment: as above; format: cell-based; settings: read-out: Minimum Growth Inhibitory Concentration
[14] = system: Shigella sonnei; experiment: as above; format: cell-based; settings: Muller-Hinton medium, 37° C., 18 hours, read-out: Minimum Growth Inhibitory Concentration
[15] = system: Proteus vulgaris OX19; experiment: as above; format: cell-based; settings: read-out: Minimum Growth Inhibitory Concentration
[16] = system: Proteus rettgeri GN466; experiment: as above; format: cell-based; settings: Providencia rettgeri, read-out: Minimum Growth Inhibitory Concentration
[17] = system: Serratia marcescens; experiment: as above; format: cell-based; settings: read-out: Minimum Growth Inhibitory Concentration
[18] = system: Providencia sp. Pv16; experiment: as above; format: cell-based; settings: read-out: Minimum Growth Inhibitory Concentration
[19] = system: Pseudomonas aeruguinosa No.12; experiment: as above; format: cell-based, Pseudomonas aeruginosa; settings: Muller-Hinton medium, 37° C., 18 hours, read-out: Minimum Growth Inhibitory Concentration
[20] = system: Pseudomonas aeruguinosa H9; experiment: as above; format: cell-based, Pseudomonas aeruginosa; settings: read-out: Minimum Growth Inhibitory Concentration
[21] = system: Pseudomonas aeruguinosa H11; experiment: as above; format: cell-based, Pseudomonas aeruginosa; settings: Muller-Hinton medium, 37° C., 18 hours, read-out: Minimum Growth Inhibitory Concentration
[22] = system: Pseudomonas aeruguinosa TI-13; experiment: as above; format: cell-based, Pseudomonas aeruginosa; settings: read-out: Minimum Growth Inhibitory Concentration
[23] = system: Pseudomonas aeruguinosa PST1; experiment: as above; format: cell-based, Pseudomonas aeruginosa; settings: Muller-Hinton medium, 37° C., 18 hours, read-out: Minimum Growth Inhibitory Concentration
[24] = system: mice; experiment: Acute toxicity by intravenous injection in mice; settings: for acute toxicity (survival, symptoms): mice, intravenous injection, 200 mg/kg
[25] = system: gram-negative and gram-positive bacteria; experiment: Antibacterial activity, overall result in words; format: cell-based; settings: overall statement in words
[26] = system: resistant bacteria, Pseudomonas aeruginosa, resistant strains of gram-negative and gram-positive bacteria; settings: background, earlier filings; cited from earlier work
[27] = S. aureus 209P, Muller-Hinton medium, 37° C., 18 hours
[28] = NRRLB558, Bacillus subtilis NRRL B-558, Muller-Hinton medium, 37° C., 18 hours
[29] = Corynebacterium bovis 1810, Muller-Hinton medium, 37° C., 18 hours
[30] = ATCC607, Mycobacterium smegmatis ATCC 607, Muller-Hinton medium, 37° C., 18 hours
[31] = K12, E. coli K-12, Muller-Hinton medium, 37° C., 18 hours
[32] = E. coli JR66/W677, Muller-Hinton medium, 37° C., 18 hours
[33] = Proteus vulgaris OX19, Muller-Hinton medium, 37° C., 18 hours
[34] = Proteus rettgeri GN466, Muller-Hinton medium, 37° C., 18 hours
[35] = Pseudomonas aeruguinosa H9, Muller-Hinton medium, 37° C., 18 hours
[36] = TI13, Pseudomonas aeruguinosa TI-13, Muller-Hinton medium, 37° C., 18 hours
[37] = Providencia sp. Pv16, Muller-Hinton medium, 37° C., 18 hours
[38] = Klebsiella Pneumoniae PCI 602, Muller-Hinton medium, 37° C., 18 hours

SMILES	MIC [1, 27]	MIC [2, 28]	MIC [3, 29]	MIC [4, 30]	MIC ([5]; 18 h)	MIC [7]	MIC [8]	MIC [9]	MIC [10]	MIC [12]	MIC ([13]; Klebsiella pneumoniae, 18 h)	MIC [14]	MIC [16, 34]	MIC ([17]; 18 h)	MIC [19]	MIC [20, 35]	MIC [21]	MIC [22, 36]	MIC [23]	acute toxicity (survival, symptoms) [24]	other results
CNCC1CCC(O)C(OC2C(N)CC(OC)C(N(C)C(=O)CN)C2O)O1 (stereo not drawn) [Compound No. 1, 2'-Deamino-2'-hydroxyistamycin B]	3.13 µg/mL (≈ 8.02 µM)	3.13 µg/mL (≈ 8.02 µM)	3.13 µg/mL (≈ 8.02 µM)	25 µg/mL (≈ 64 µM)	1.56 µg/mL (≈ 4 µM)	1.56 µg/mL (≈ 4 µM)	6.25 µg/mL (≈ 16 µM)	6.25 µg/mL (≈ 16 µM)	3.13 µg/mL (≈ 8.02 µM)	3.13 µg/mL (≈ 8.02 µM)	6.25 µg/mL (≈ 16 µM)	6.25 µg/mL (≈ 16 µM)	3.13 µg/mL (≈ 8.02 µM)	12.5 µg/mL (≈ 32 µM)	100 µg/mL (≈ 256 µM)	> 100 µg/mL	> 100 µg/mL	100 µg/mL (≈ 256 µM)	100 µg/mL (≈ 256 µM)	survived without showing any sympton of toxicity	MIC [6, 31]: 3.13 µg/mL (≈ 8.02 µM); MIC [11, 32]: 3.13 µg/mL (≈ 8.02 µM); MIC [15, 33]: 3.13 µg/mL (≈ 8.02 µM); MIC ([18]; Providencia, SP.PV16, 18 h): 6.25 µg/mL (≈ 16 µM)
CNCC1CCC(O)C(OC2C(N)CC(O)C(N(C)C(=O)CN)C2O)O1 (stereo not drawn) [Compound No. 2, 2'-Deamino-2'-hydroxy-3-O-demethylistamycin B]	3.13 µg/mL (≈ 8.31 µM)	3.13 µg/mL (≈ 8.31 µM)	3.13 µg/mL (≈ 8.31 µM)		1.56 µg/mL (≈ 4.14 µM)	1.56 µg/mL (≈ 4.14 µM)	6.25 µg/mL (≈ 16.6 µM)	6.25 µg/mL (≈ 16.6 µM)	3.13 µg/mL (≈ 8.31 µM)	3.13 µg/mL (≈ 8.31 µM)	6.25 µg/mL (≈ 16.6 µM)	6.25 µg/mL (≈ 16.6 µM)		12.5 µg/mL (≈ 33.2 µM)	25 µg/mL (≈ 66.4 µM)		25 µg/mL (≈ 66.4 µM)		25 µg/mL (≈ 66.4 µM)	survived without showing any sympton of toxicity	MIC ([4]; ATCC607, 18 h): 6.25 µg/mL (≈ 16.6 µM); MIC ([6]; K12, 18 h): 1.56 µg/mL (≈ 4.14 µM); MIC ([11]; JR66/W677, 18 h): 6.25 µg/mL (≈ 16.6 µM); MIC ([15]; Proteus vulgaris, OX19, 18 h): 1.56 µg/mL (≈ 4.14 µM); MIC ([16]; GN466, 18 h): 1.56 µg/mL (≈ 4.14 µM); MIC [18, 37]: 3.13 µg/mL (≈ 8.31 µM); MIC ([20]; Pseudomonas, H9, 18 h): 12.5 µg/mL (≈ 33.2 µM); MIC ([22]; Pseudomonas, TI13, 18 h): 12.5 µg/mL (≈ 33.2 µM)
CNCC1CCC(O)C(OC2C(N)CC(OC)C(N(C)C(=O)CCN)C2O)O1 (stereo not drawn) [Compound No. 3, 4-N-(β-Alanyl)-2'-deamino-2'-hydroxyistamycin Bo]			12.5 µg/mL (≈ 30.9 µM)	25 µg/mL (≈ 61.8 µM)	1.56 µg/mL (≈ 3.86 µM)	3.13 µg/mL (≈ 7.74 µM)	6.25 µg/mL (≈ 15.5 µM)	12.5 µg/mL (≈ 30.9 µM)	3.13 µg/mL (≈ 7.74 µM)	3.13 µg/mL (≈ 7.74 µM)		6.25 µg/mL (≈ 15.5 µM)	0.78 µg/mL (≈ 1.93 µM)	6.25 µg/mL (≈ 15.5 µM)	100 µg/mL (≈ 247 µM)	50 µg/mL (≈ 124 µM)	100 µg/mL (≈ 247 µM)	100 µg/mL (≈ 247 µM)	100 µg/mL (≈ 247 µM)	survived without showing any sympton of toxicity	MIC ([1]; 209P, 18 h): 6.25 µg/mL (≈ 15.5 µM); MIC ([2]; Bacillus subtilis, NRRLB558, 18 h): 3.13 µg/mL (≈ 7.74 µM); MIC ([6]; K12, 18 h): 3.13 µg/mL (≈ 7.74 µM); MIC ([11]; JR66/W677, 18 h): 6.25 µg/mL (≈ 15.5 µM); MIC [13, 38]: 12.5 µg/mL (≈ 30.9 µM); MIC ([15]; Proteus vulgaris, OX19, 18 h): 3.13 µg/mL (≈ 7.74 µM); MIC ([18]; Providencia, SP.PV16, 18 h): 3.13 µg/mL (≈ 7.74 µM)
CNCC1CCC(O)C(OC2C(N)CC(O)C(N(C)C(=O)CCN)C2O)O1 (stereo not drawn) [Compound No. 4, 4-N-(β-Alanyl)-2'-deamino-2'-hydroxy-3-O-demethylistamycin Bo]		0.78 µg/mL (≈ 2 µM)			1.56 µg/mL (≈ 4 µM)	0.78 µg/mL (≈ 2 µM)	3.13 µg/mL (≈ 8.02 µM)	6.25 µg/mL (≈ 16 µM)	1.56 µg/mL (≈ 4 µM)	3.13 µg/mL (≈ 8.02 µM)	3.13 µg/mL (≈ 8.02 µM)	3.13 µg/mL (≈ 8.02 µM)	0.39 µg/mL (≈ 0.999 µM)	3.13 µg/mL (≈ 8.02 µM)	12.5 µg/mL (≈ 32 µM)	12.5 µg/mL (≈ 32 µM)	12.5 µg/mL (≈ 32 µM)	12.5 µg/mL (≈ 32 µM)	12.5 µg/mL (≈ 32 µM)	survived without showing any sympton of toxicity	MIC ([1]; 209P, 18 h): 1.56 µg/mL (≈ 4 µM); MIC ([3]; Corynebacterium bovis, 1810, 18 h): 3.13 µg/mL (≈ 8.02 µM); MIC ([4]; ATCC607, 18 h): 6.25 µg/mL (≈ 16 µM); MIC ([6]; K12, 18 h): 1.56 µg/mL (≈ 4 µM); MIC ([11]; JR66/W677, 18 h): 3.13 µg/mL (≈ 8.02 µM); MIC ([15]; Proteus vulgaris, OX19, 18 h): 1.56 µg/mL (≈ 4 µM); MIC ([18]; Providencia, SP.PV16, 18 h): 1.56 µg/mL (≈ 4 µM); antibacterial activity [25]: very much good antibacterial activity; antibacterial activity ([25]; listed as 4-N-(β-alanyl)-2'-deamino-2'-hydroxy-3-O-demethylistamycin Bo): antibacterial activity as high as that of istamycin B; toxicity ([24]; overall statement, comparison with istamycin B or low toxicity): lower toxicity than itstamycin B
CNCC1CCC(N)C(OC2C(N)CC(OC)C(N(C)C(=O)CN)C2O)O1 (stereo not drawn) [Istamycin B, istamycin B]	0.78 µg/mL (≈ 2 µM)	0.78 µg/mL (≈ 2 µM)	0.78 µg/mL (≈ 2 µM)	0.78 µg/mL (≈ 2 µM)		0.78 µg/mL (≈ 2 µM)	1.56 µg/mL (≈ 4.01 µM)	6.25 µg/mL (≈ 16 µM)	1.56 µg/mL (≈ 4.01 µM)	12.5 µg/mL (≈ 32.1 µM)		3.13 µg/mL (≈ 8.04 µM)	0.78 µg/mL (≈ 2 µM)		25 µg/mL (≈ 64.2 µM)	12.5 µg/mL (≈ 32.1 µM)	50 µg/mL (≈ 128 µM)	25 µg/mL (≈ 64.2 µM)	50 µg/mL (≈ 128 µM)		MIC ([5]; E. coli NIHJ, Muller-Hinton medium, 37° C., 18 hours): 0.78 µg/mL (≈ 2 µM); MIC [6, 31]: 0.78 µg/mL (≈ 2 µM); MIC [11, 32]: 1.56 µg/mL (≈ 4.01 µM); MIC [13, 38]: 1.56 µg/mL (≈ 4.01 µM); MIC [15, 33]: 0.78 µg/mL (≈ 2 µM); MIC ([17]; Muller-Hinton medium, 37° C., 18 hours): 6.25 µg/mL (≈ 16 µM); MIC [18, 37]: 1.56 µg/mL (≈ 4.01 µM); antibacterial activity [26]: highest antibacterial activity

Reference: patent US4795743A, “2'-deamino-2'-hydroxyistamycin Bo derivatives of low toxicity” (Zaidan Hojin Biseibutsu Kagaku Kenkyu Kai, priority 1986, dated 1989)
